# Results: US7345192B2, “Reduction of hair growth” (The Gillette Company, priority 2005, dated 2008)
# Like-named read-outs stand apart in the source and are kept apart here.
# Legend:
# [1] = Procedure: The penetration studies were carried out using Franz chambers. Hamster skin (non-flank organ region) was clipped and appropriate size pieces then cut and mounted between the lower and upper Franz cell chambers. The lower and upper chambers (with the skin in between) were then securely clamped together. A small magnetic stir bar was placed in the bottom of each chamber, 80 μL of 100× sodium azide to a final concentration of 0.2% was added as an anti-microbial agent, then the lower chamber was filled with phosphate buffered saline (PBS). PBS is added until the level in the side arm is just level with the mounted skin, slightly inverting the cells as necessary to remove any air bubbles that might occur. The Franz chambers are then placed in the appropriate size heating blocks and allowed to stand overnight at room temperature. […] Similarly, 20-40 μL of a 1% test formulation was applied over 8-10 chambers. Four hundred μL of the receptor fluid from the lower chamber was removed at 2, 4, 6, 8, 24 and 50 hours and placed in a scintillation vial. This PBS was then replaced with 400 μL of fresh PBS.
# [2] = In vitro drug skin accumulation assay (tape-stripped skin after 50-hour diffusion); type: in vitro ADME, Hamster; conditions: for % Skin Deposition: skin after tape stripping of stratum corneum
# Procedure: The penetration studies were carried out using Franz chambers.
# After the 50-hour receiver fluid sample was taken, the diffusion set-up was dismantled. The skin section was mounted on a board and the stratum corneum skin layer was removed by tape stripping (3M Magic Tape 810). The section of the remaining skin exposed to the receiver fluid was isolated, placed in a vial containing 1 ml of Beckman Tissue Solubilizer-450, shaken for 4 days, and the resulting solution was assayed for the radiolabeled drug.
# [3] = Ionization constants by potentiometric titration; type: physicochemical
# Procedure: Although Schiff base formation is possible at both amino groups, sufficient selectivity can be achieved under buffered conditions or by terminating the reaction at an appropriate time. […] Three constants were obtained: pK1=0.084, pK2=6.437, pK3=10.393. Mono-conjugated Schiff base was prepared by reaction with a selected aldehyde or ketone under controlled buffer conditions.
structure (smiles),measurement,setting,value
"NC(CCCN=Cc1ccc2ccccc2c1)(C(=O)O)C(F)F (centres unmarked) [N-DFMO, 2-amino-2-difluoromethyl-5-[([…]aphthalene-2-ylmethylene)-amino]-pentanoic acid]","Skin penetration, % of applied dose after 24 hr",[1],3.91 ± 0.71 % of applied dose
"NC(CCCN=Cc1ccccc1)(C(=O)O)C(F)F (centres unmarked) [B-DFMO, 2-amino-5-(benzylidene-amino)-2-difluoromethyl-pentanoic acid]",Initial Rate of Penetration,"[1]; hamster, 2 h, 1 % formulation",1.24 ± 1.16
same,Initial Rate of Penetration,"[1]; hamster, 4 h, 1 % formulation",1.65 ± 1.48
same,Initial Rate of Penetration,"[1]; hamster, 6 h, 1 % formulation",1.71 ± 1.50
same,Level of radiolabeled drug in the receptor fluid,"[1]; hamster, 24 h, 1 % formulation",10±1 % of the applied dose
same,"Skin penetration, % of applied dose after 24 hr","[1]; hamster, 24 h, 1 % formulation",9.63 ± 1.31 % of applied dose
same,Level of radiolabeled drug in the receptor fluid,"[1]; hamster, 50 h, 1 % formulation",16±3 % of the applied dose
same,Relative Deposition (fold increase over unconjugated DFMO),[2],7.4 fold
same,% Skin Deposition,[2],5.92 ± 4.0%
"Cc1cc(C)c(C=NCCCC(N)(C(=O)O)C(F)F)c(C)c1 (centres unmarked) [M-DFMO, 2-amino-2-difluoromethyl-5-[(2,4,6-trimethyl-benzylidene)-amino]-pentanoic acid]","Skin penetration, % of applied dose after 24 hr","[1]; hamster, 24 h, 1 % formulation",6.68 ± 1.68 % of applied dose
"CC(C)c1ccc(C=NCCCC(N)(C(=O)O)C(F)F)cc1 (centres unmarked) [IPB-DFMO, 2-amino-2-difluoromethyl-5-[(4-isopropyl-benzylidene)-amino]-pentanoic acid]","Skin penetration, % of applied dose after 24 hr","[1]; hamster, 24 h, 1 % formulation",3.31 ± 0.98 % of applied dose
"CC(C=NCCCC(N)(C(=O)O)C(F)F)=Cc1ccccc1 (centres unmarked) [MCA-DFMO, 2-amino-2-difluoromethyl-5-(2-methyl-3-phenyl-allylideneamino)-pentanoic acid]","Skin penetration, % of applied dose after 24 hr","[1]; hamster, 24 h, 1 % formulation",3.28 ± 0.88 % of applied dose
same,Relative Deposition (fold increase over unconjugated DFMO),[2],5.0 fold
same,% Skin Deposition,[2],4.00 ± 3.0%
"COC(=O)C(N)(CCCN)C(F)F (centres unmarked) [DFMO-OMe, 2,5-diamino-2-difluoromethyl-pentanoic acid methyl ester]",Rate of Penetration,"[1]; hamster, 4 h, 1 % formulation",0.23 ± 0.18
same,Rate of Penetration,"[1]; hamster, 6 h, 1 % formulation",0.21 ± 0.16
same,Rate of Penetration,"[1]; hamster, 24 h, 1 % formulation",0.2 ± 0.13
"NCCC[C@](N)(C(=O)O)C(F)F [DFMO, α-Difluoromethylornithine]",Ionization constant pK1,[3],0.084
same,Ionization constant pK2,[3],6.437
same,Ionization constant pK3,[3],10.393
"COc1cc(C=NCCCC(N)(C(=O)O)C(F)F)ccc1O (centres unmarked) [V-DFMO, 2-amino-2-difluoromethyl-5-[(4-hydroxy-3-methoxy-benzylidene)-amino]-pentanoic acid]","Skin penetration, % of applied dose after 24 hr","[1]; hamster, 24 h, 1 % formulation",3.34 ± 1.97 % of applied dose
same,Relative Deposition (fold increase over unconjugated DFMO),[2],1.2 fold
same,% Skin Deposition,[2],0.96 ± 0.6%
